Legend:
[1] = system: action potential (AP) morphology; conditions: blebbistatin 10 μM used to immobilize tissue; cited from earlier work
human cardiac slices = test: Acute vs chronic phenylephrine in cultured human cardiac slices, electrophysiology by optical mapping; assay type: cell-based; conditions: 3 μM phenylephrine, acute application vs slices cultured 24 hours in drug medium
Procedure: Utilizing cultured slices and an adult dosage of phenylephrine, a widely used selective α1-adrenergic receptor agonist, a model to study chronic drug effects in human cardiac slices is developed. Slice electrophysiology was first acutely measured using optical mapping after application of 3 μM phenylephrine.

SMILES | effects in action potential (AP) morphology [1] | Two electrophysiology parameters, acute vs chronic stimulation modes (human cardiac slices)
Cc1ccc2c(c1)C(=O)C1(O)CCN(c3ccccc3)C1=N2 (centres unmarked) [blebbistatin] | no significant effects | 
CNC[C@H](O)c1cccc(O)c1 [phenylephrine] |  | substantial difference

Source: patent US12344826B2, “Apparatus and methods for in vitro preclinical human trials” (THE GEORGE WASHINGTON UNIVERSITY, A CONGRESSIONALLY …, priority 2017, dated 2025)
